These results are taken from patent US20230212319A1, “NOVEL ANTIGEN BINDING DOMAINS AND SYNTHETIC ANTIGEN RECEPTORS INCORPORATING THE SAME” (University of Southern California, priority 2020, published 2023).

Assay [1] deals with RAJI cells. In words: T cell cytotoxicity against RAJI (Matador assay, Gluc). It is filed as cell-based.
Assay [2] has as its system Nalm6 cells. In words: Cytokine ELISA (IFNγ, TNFα, IL-2) after co-culture with Nalm6. The assay is classed as cell-based. The note with it: T cells expanded 7 days with compound, co-cultured with Nalm6 48 h.
Procedure: After 48 h, supernatant was collected and used for measurement of IFNγ, TNFα and IL-2 by ELISA.
Control T cells or SIR-T cells grown in regular flask or G-Rex 6-well plate were cultured with Nalm6-hGLuc 100 K/well/100 ul in 96-well plate U-bottom in XVIVO medium with no additional component. After 48 h co-culture, supernatant was collected and used for ELISA.
The supernatant from the different cell populations were tested for cytokine production upon co-culture with NALM6 cells.
The nature of assay [3]: Flow cytometry of expanded CAR-T/SIR-T cells (Protein L staining, T cell surface markers). It is filed as cell-based, human. The conditions noted are these: CAR-T and SIR-T cells expanded 7 days with 1 µM. (In general: In flow cytometry, cells or beads pass a laser one at a time.)
Procedure: Cells were expanded in XVIVO medium under standard conditions in the presence of IL2 and CD3/CD28 beads in the absence or presence of Birinapant 1 µM for 7 days and. After 7 days, cells were analyzed by flow cytometry for expression of different cell surface markers.
Cells were pelleted and re-suspended in XVIVO-15 (Lonza) T-cell medium supplemented with PSA, 100 IU/ml recombinant human IL2 and Dynabeads Human T-Activator CD3/CD28 and 5% hAB serum.
The cells were analyzed by flow cytometery for expresson of SIR by staining with Protein L and for presence of different T cell markers.
After 13 days of culture, cells were counted and analyzed by flow cytometry.

Take `CC[C@H](NC(=O)[C@H](C)NC)C(=O)N1C[C@@H](O)C[C@H]1Cc1c(-c2[nH]c3cc(F)ccc3c2C[C@@H]2C[C@H](O)CN2C(=O)[C@H](CC)NC(=O)[C@H](C)NC)[nH]c2cc(F)ccc12` [Birinapant]: the “non-specific killing by uninfected control T cells expanded in presence of SMAC mimetic” value in assay [1] (100 nM or 1 µM, 16 days, RAJI-Gluc, 4 h) is recorded as “no effect”. Also, the “cell killing of RAJI cells by SAR-T cells expanded in presence of SMAC mimetic” value in assay [1] (SAR SEQ ID NO: 7348 T cells expanded 16 days with 100 nM or 1 µM, E:T 0.25:1 and 0.5:1, 4 h) is reported as “dose dependent increase”. In addition, in assay [2], the IFNγ secretion entry is listed as “no significant decrease”, the IL2 secretion result was “no significant decrease” and the TNFα secretion result was “no significant decrease”. Moreover, in assay [3], the CD4 cells entry is listed as “decline”, the CD62L cells result is reported as “increase” and the “proportion of CD8 cells” value is recorded as “increase”.
